The values below are quoted from earlier work in patent publication US6713950B2, “Low volatility slurry for emission mix powder” (General Electric Company, priority 2001, dated 2004).

The test system of the series is rats.

Consider polyethylene glycol 200 [PEG 200], for which the “oral LD50” value was 28000 mg/kg.
